{"source": "patent US20040191926A1", "about": "(priority 2001, published 2004)", "key": {"TCPTP": {"target": "T1, TCPTP (Homo sapiens, UniProt P17706)", "T1 construct": "catalytic domain (amino acid residues 1-288) of the human T cell PTPase (TCPTP); made in house", "T1 sequence (P17706 1-288)": "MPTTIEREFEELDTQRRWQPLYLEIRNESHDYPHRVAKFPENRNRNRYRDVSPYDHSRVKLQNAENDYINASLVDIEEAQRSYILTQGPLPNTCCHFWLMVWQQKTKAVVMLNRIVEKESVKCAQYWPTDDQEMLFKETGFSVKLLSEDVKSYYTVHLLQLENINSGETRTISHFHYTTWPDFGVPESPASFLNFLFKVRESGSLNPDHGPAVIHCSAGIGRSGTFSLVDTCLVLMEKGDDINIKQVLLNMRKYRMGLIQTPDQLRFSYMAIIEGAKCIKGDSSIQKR", "experiment": "PTPase activity assay with pNPP substrate", "assay_type": "biochemical", "conditions": "pH 7.0, ionic strength 0.15 M, read-out: Inhibition Potency, Ki"}, "Yersinia PTP": {"target": "T2, Yersinia PTP (Yersinia enterocolitica, UniProt P15273)", "T2 construct": "made in house; host or cells: E. coli", "T2 sequence (P15273 whole entry)": "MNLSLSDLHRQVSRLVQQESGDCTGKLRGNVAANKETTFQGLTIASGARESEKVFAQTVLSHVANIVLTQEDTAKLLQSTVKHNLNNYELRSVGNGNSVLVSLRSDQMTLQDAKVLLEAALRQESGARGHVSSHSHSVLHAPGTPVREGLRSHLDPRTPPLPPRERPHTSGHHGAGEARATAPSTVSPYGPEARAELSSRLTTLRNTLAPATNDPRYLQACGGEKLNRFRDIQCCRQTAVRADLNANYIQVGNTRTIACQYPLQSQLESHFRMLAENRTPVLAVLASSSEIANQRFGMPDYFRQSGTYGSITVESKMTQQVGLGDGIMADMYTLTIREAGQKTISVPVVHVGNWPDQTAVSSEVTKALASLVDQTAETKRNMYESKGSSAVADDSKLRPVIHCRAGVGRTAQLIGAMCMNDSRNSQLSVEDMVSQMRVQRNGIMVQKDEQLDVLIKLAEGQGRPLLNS", "experiment": "biochemical"}, "SHP1": {"target": "T3, SHP1 (Homo sapiens, UniProt P29350)", "T3 construct": "the catalytic domains of SHP1 and SHP2 were expressed and purified as (His)6-fusion proteins; (His)6; made in house", "T3 sequence (P29350 244-515 limits assumed)": "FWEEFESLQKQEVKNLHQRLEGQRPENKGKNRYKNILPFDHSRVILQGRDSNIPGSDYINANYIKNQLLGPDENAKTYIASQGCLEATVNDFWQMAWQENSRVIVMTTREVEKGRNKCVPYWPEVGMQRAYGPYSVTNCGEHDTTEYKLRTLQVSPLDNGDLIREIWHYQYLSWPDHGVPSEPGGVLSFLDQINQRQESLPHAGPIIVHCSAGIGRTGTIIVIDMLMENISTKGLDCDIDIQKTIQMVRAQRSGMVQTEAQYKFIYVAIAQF", "experiment": "Phosphatase panel, pNPP assay", "assay_type": "biochemical", "conditions": "2 mM pNPP; read-out: Inhibition Potency, IC50"}, "LAR": {"target": "T4, LAR (Homo sapiens, UniProt P10586)", "T4 construct": "The intracellular fragment of PTPa, LAR and CD45 containing both of the PTPase domains was cleaved off the fusion protein; GST (cleaved yes); made in house", "T4 sequence (P10586 1285-1907 limits assumed)": "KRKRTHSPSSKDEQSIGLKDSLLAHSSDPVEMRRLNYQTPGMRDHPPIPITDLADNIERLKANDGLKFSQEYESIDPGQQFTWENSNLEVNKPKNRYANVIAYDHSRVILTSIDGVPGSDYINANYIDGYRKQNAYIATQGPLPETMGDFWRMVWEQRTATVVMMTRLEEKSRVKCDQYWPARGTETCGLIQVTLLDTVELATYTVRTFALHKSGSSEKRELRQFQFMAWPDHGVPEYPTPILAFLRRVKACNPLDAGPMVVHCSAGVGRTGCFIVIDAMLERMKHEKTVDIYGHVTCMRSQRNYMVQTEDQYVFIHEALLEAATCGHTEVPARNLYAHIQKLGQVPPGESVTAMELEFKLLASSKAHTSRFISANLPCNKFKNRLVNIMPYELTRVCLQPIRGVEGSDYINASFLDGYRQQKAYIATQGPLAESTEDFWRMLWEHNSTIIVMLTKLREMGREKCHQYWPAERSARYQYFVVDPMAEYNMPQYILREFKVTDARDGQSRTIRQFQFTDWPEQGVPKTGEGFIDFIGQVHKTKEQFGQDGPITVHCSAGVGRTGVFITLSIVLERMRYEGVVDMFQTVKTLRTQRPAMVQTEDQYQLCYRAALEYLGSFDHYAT", "experiment": "Phosphatase panel, pNPP assay", "assay_type": "biochemical", "conditions": "2 mM pNPP; read-out: Inhibition Potency, IC50"}, "HePTP": {"target": "T5, HePTP (Homo sapiens, UniProt P35236)", "T5 construct": "(His)6; made in house", "T5 sequence (P35236 1-360)": "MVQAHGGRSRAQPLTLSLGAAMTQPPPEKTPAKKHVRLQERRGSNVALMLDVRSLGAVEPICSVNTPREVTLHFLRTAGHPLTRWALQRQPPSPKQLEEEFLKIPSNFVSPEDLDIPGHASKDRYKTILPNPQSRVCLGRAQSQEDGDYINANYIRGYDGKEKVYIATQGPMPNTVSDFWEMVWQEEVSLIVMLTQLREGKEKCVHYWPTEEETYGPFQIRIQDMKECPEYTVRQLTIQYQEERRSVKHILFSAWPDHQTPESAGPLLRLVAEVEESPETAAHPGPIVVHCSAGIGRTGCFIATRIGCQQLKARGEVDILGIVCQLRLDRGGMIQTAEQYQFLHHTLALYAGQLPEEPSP", "experiment": "Phosphatase panel, pNPP assay", "assay_type": "biochemical", "conditions": "at 10 μM"}, "MKP3": {"system": "MKP3", "experiment": "Phosphatase panel, pNPP assay", "assay_type": "biochemical", "conditions": "at 10 μM"}}, "data": [{"smiles": "NC(=O)C(Cc1ccc(C(F)(F)P(=O)(O)O)cc1)NC(=O)C(CC(=O)O)NC(=O)Cc1ccc(C(F)(F)P(=O)(O)O)cc1", "note": "(stereo not drawn) [Compound 40]", "values": [{"measurement": "Ki", "setting": "TCPTP", "result": 0.026, "unit": "µM"}, {"measurement": "IC50", "setting": "Yersinia PTP", "result": 1.6, "unit": "µM"}, {"measurement": "IC50", "setting": "SHP1", "result": 11, "unit": "µM"}, {"measurement": "IC50", "setting": "LAR", "result": 72, "unit": "µM"}, {"measurement": "Inhibition Potency", "setting": "HePTP", "result": "No inhibition at 10 μM"}, {"measurement": "Inhibition Potency", "setting": "MKP3", "result": "No inhibition at 10 μM"}]}]}
